Assay [1] has as its target T1, mPGES-1 (Homo sapiens (Human), UniProt O14684). As to the kind of experiment: mPGES-1 enzyme assay (HTRF detection of PGE2). The class given is biochemical. How it is done:
Microsomes from Rosetta E. coli bacteria expressing recombinant human mPGES-1 can be derived as described below:
Inoculate 5 ml LB with Ampicilin (50 μg/ml) and Chloramphenicol (34 μg/ml) with bacteria from freeze culture. Incubate 8 h at 37° C. with 200 rpm. Thereafter, inoculate 500-1000 ml LB containing Amp and Chloro with the 5 ml on culture and grow to OD640 of 0.8-1.0. Chill the culture to +4° C. before induction. Induce the culture with IPTG at a final concentration of 400 μM. Express the protein at room temp 18-23° C. with 200 rpm shaking over night.
The following steps can be performed on the following day: • 1. Spin down the cells in 250 ml centrifuge flasks for 15 min at 7000 rpm (Beckmann Coulte Avanti J-E centrifuge) • 2. Dissolve the pellet from 250 ml culture in 12.5 ml homogenization buffer • 3. (15 mM Tris-HCL pH8, 1 mM EDTA pH8, […], 2.5 mM GSH, 1 Tablet Protease inhibitor per 50 ml buffer) • 4. […] Add 2.5 ml MgCl2 (100 mM) and DNase 12.5 μl (0.8 mg/ml) and incubate on ice for 30 min • 6. Spin down the bacteria debris and save the supernatant, 7000 rpm for 15 min • 7. Isolate the protein containing membranes in the supernatant by ultracentrifugation 120000×g for 2 hour at 4° C. (Sorvall T880 rotor). • 8. Discard the supernatant and dissolve the pellet in 20 mM Potassium phosphate buffer pH7.4 (KH2PO4 and K2HPO4) buffer by sonication (5×10 s, 30% of a 50 W sonifier) and aliquot the enzyme and store aliquots at −80° C.
Before each experiment is performed an aliquot of the enzyme is thawed and it can then be dissolved in 0.1 M Potassium phosphate buffer pH7.4 (KH2PO4 and K2HPO4) buffer containing 2.5 mM GSH.
The aim of this assay is to determine the affinity of a test compound for the mPGES-1 enzyme.
47 μl of recombinant human mPGES-1 (˜0.5 μg protein/well) containing microsomal suspension in a buffer containing GSH, (2.5 mmol/L L-Glutathione reduced, dissolved in 0.1 mol/L Phosphat Buffer pH 7.4) is dispensed in a 384-well plate and thereafter 1 μl of the test compound(s) is/are added and incubated for 25 minutes at room temperature. The enzyme reaction is started by the addition of 2 ul PGH2 (final conc. 2 μM) dissolved in water-free Diglyme. After 60 seconds the reaction is terminated by addition of a stop solution containing FeCl2 (10 μL 0.074 mol/l FeCl2). The samples are diluted between 1:25 in PBS (Phosphate Buffered Saline). 10 μl of the diluted samples are transferred to 384-well low volume plate. In order to quantify the amount of PGE2 that has been formed, a homogenous time resolved fluorescent (HTRF) detecting of PGE2 has been performed using a commercially available kit from Cisbio according to the manufactures recommendation. […] Briefly, the diluted samples are mixed with 5 μl PGE2-d2 conjungate and 5 μl anti-PGE2 cryptate conjungate. After an incubation period of the plates over night, the fluorescence is measured by the use of an appropriate microplate reader.
The quantification plate contains also wells with different concentrations of PGE2 as calibration curve for the calculation of the PGE2 concentrations from the HTRF ratio values.
From all mPGES enzyme assay the background is subtracted and the IC50 is calculated over a nonlinear regression with conventional software.
In general terms: Time-resolved FRET reads energy transfer from a long-lived donor to a nearby acceptor.

Assay [2] addresses T1, mPGES-1. The assay can be described thus: A549 cell-based assay (PGE2 formation, IL-1β stimulated, 50% human serum). Conditions: A549 cells. The protocol:
Although the enzymatic assay is a high throughput assay the disadvantage is that it uses a recombinant protein which is not in its natural environment. Accordingly a cellular assay was established in which a cell line of human origin (A549) expressing the mPGES-1 protein was used. In addition in order to mimic the situation in humans in which compounds can be bound to plasma proteins 50% human serum is added in the assay.
Cells were detached using Trypsin-EDTA. A549 cells were seeded in a 384-well collagene plate at a density of 7000 cells/well (50 μl) in F-12 medium containing 1% Penicillin-Streptomycin and 50% human serum. The cells were allowed to attach for 3-4 h. […] The total volume is 100 μl.
Concentrations of PGE2 in the cell free medium (10 μl) were measured using a commercially available HTRF kit from Cisbio (as described above). The PGE2 formation in the absence of test compound was taken as 100%.
IC50 values were derived from at 6-8 point titrations using conventional software.

Setting [3] is: recombinant human mPGES-1 microsomes, PGH2 2 μM, read-out: mPGES-1 inhibitory effect in the enzyme assay, IC50.
The mark [4] stands for this setting: IL-1β 5 ng/ml, read-out: mPGES-1 inhibitory effect in the cell assay, IC50.

T1 sequence (O14684 whole entry): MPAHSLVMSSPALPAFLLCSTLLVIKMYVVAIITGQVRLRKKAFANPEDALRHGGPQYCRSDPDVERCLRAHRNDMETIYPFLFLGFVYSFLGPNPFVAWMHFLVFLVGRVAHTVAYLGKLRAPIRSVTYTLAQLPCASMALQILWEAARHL

As a reminder, the IC50 is the concentration needed to halve the response being measured. For the molecule `Cn1c(Nc2c(Cl)ccc(CNC(=O)C(C)(C)C)c2Cl)nc2cc(C(=O)NCc3ccccc3C(F)(F)F)c(OCC(F)F)cc21` [Example 35], the figures for the IC50 in assay [1] (setting [3]) and in assay [2] (setting [4]) were 4 nM and below 1 nM, respectively.
The like results for `Cn1c(Nc2c(Cl)ccc(CNC(=O)C(C)(C)C)c2Cl)nc2cc(C(=O)Nc3ccc4c(c3)CCC4)c(OCC(F)F)cc21` [Example 59] were, in that order, 4 nM and below 1 nM.
Take `Cn1c(Nc2c(F)ccc(CNC(=O)C(C)(C)C)c2F)nc2cc(C(=O)N[C@H]3CC[C@H](C(F)(F)F)CC3)c(F)cc21` [Example 10]: the 50% inhibitory concentration (IC50) in assay [1] (setting [3]) turned out to be 7 nM; in assay [2] (setting [4]) it was 4 nM.
The corresponding values for `COC(=O)c1ccc(NC(=O)c2cc3nc(Nc4c(Cl)ccc(CNC(=O)C(C)(C)C)c4Cl)n(C)c3cc2OCC(F)F)s1` [Example 50] are 4 nM and 1 nM.
The like results for `Cn1c(Nc2c(Cl)ccc(CNC(=O)C(C)(C)C)c2Cl)nc2cc(C(=O)Nc3c(F)ccc(F)c3F)c(OCC(F)F)cc21` [Example 85] were, in that order, 1 nM and 4 nM.
In the case of `Cn1c(Nc2c(Cl)ccc(CNC(=O)OC(C)(C)C)c2Cl)nc2cc(C(=O)N[C@H]3CC[C@H](C(F)(F)F)CC3)c(OCC(F)F)cc21` [Example 13, N-(trans-4-Trifluoromethyl-cyclohex-1-yl)-2-{2,6-dichloro-3-[(tert-butoxy-carbonylamino)-methyl]-phenylamino}-6-(2,2-difluoroethoxy)-1-methyl-1H-benzimidazole-5-carboxylic acid amide], the IC50 stood at 3 nM in assay [1] (setting [3]) and 28 nM in assay [2] (setting [4]).
As to `Cn1c(Nc2c(Cl)ccc(CNC(=O)C(C)(C)C)c2Cl)nc2cc(C(=O)Nc3ccc(F)c(Cl)c3)c(OCC(F)F)cc21` [Example 29], the 50% inhibitory concentration (IC50) in assay [1] (setting [3]) was 4 nM; in assay [2] (setting [4]) it was below 1 nM.
Consider `CC(C)(C)C(=O)NCc1ccc(Cl)c(Nc2nc3cc(C(=O)N[C@H]4CC[C@H](C(F)(F)F)CC4)c(F)c(F)c3[nH]2)c1Cl` [Example 180], for which the half-inhibitory concentration (IC50) in assay [1] (setting [3]) was 2 nM; in assay [2] (setting [4]), 93 nM.
As for `Cn1c(Nc2c(Cl)ccc(CNC(=O)C(C)(C)C)c2Cl)nc2cc(C(=O)N[C@H]3CC[C@H](C(F)(F)F)CC3)c(OCC(F)F)cc21` [drawing 46], the half-inhibitory concentration (IC50) is 2 nM in assay [1] (Table C comparison of selected benzimidazoles, read-out: Enzym IC50) and below 1 nM in assay [2] (Table C comparison of selected benzimidazoles, read-out: Cell IC50).
For `Cn1c(Nc2c(Cl)ccc(CNC(=O)C(C)(C)C)c2Cl)nc2cc(C(=O)Nc3cccc(Cl)c3)c(F)cc21` [Example 18], the IC50 in assay [1] (setting [3]) was determined as 1 nM; in assay [2] (setting [4]) it was 4 nM.
Turning to `Cn1c(Nc2c(Cl)ccc(CNC(=O)C(C)(C)C)c2F)nc2cc(C(=O)N[C@H]3CC[C@H](C(F)(F)F)CC3)c(OCC(F)F)cc21` [Example 76], the concentration for half-maximal inhibition (IC50) stood at 3 nM in assay [1] (setting [3]) and 2 nM in assay [2] (setting [4]).
`Cn1c(Nc2c(Cl)ccc(CNC(=O)C(C)(C)C)c2Cl)nc2cc(C(=O)N[C@H]3CC[C@H](C(F)(F)F)CC3)c(OCC(F)F)cc21` [Example 1, N-(trans-4-Trifluoromethyl-cyclohex-1-yl)-2-{2,6-dichloro-3-[(2,2-dimethyl-propionylamino)-methyl]-phenylamino}-6-(2,2-difluoro-ethoxy)-1-methyl-1H-benzimidazole-5-carboxylic acid amide]: the results for the half-maximal inhibitory concentration (IC50) in assay [1] (setting [3]) and in assay [2] (setting [4]) were 2 nM and below 1 nM, respectively.
The like results for `Cc1ccc(CNC(=O)C(C)(C)C)c(C)c1Nc1nc2cc(C(=O)N[C@H]3CC[C@H](C(F)(F)F)CC3)c(OCC(F)F)cc2n1C` [Example 14, N-(trans-4-Trifluoromethyl-cyclohex-1-yl)-2-{2,6-dimethyl-3-[(2,2-dimethyl-propionylamino)-methyl]-phenylamino}-6-(2,2-difluoroethoxy)-1-methyl-1H-benzimidazole-5-carboxylic acid amide] were, in that order, 1 nM and 5 nM.
Turning to `Cn1c(Nc2c(Cl)ccc(CNC(=O)C(C)(C)C)c2Cl)nc2cc(C(=O)Nc3ccc(Cl)cc3Cl)c(OCC(F)F)cc21` [Example 60, N-(2,4-dichloro-phenyl)-2-{2,6-dichloro-3-[(2,2-dimethyl-propionylamino)-methyl]-phenylamino}-6-(2,2-difluoro-ethoxy)-1-methyl-1H-benzimidazole-5-carboxylic acid amide], the concentration for half-maximal inhibition (IC50) in assay [1] (setting [3]) is 3 nM; in assay [2] (setting [4]), below 1 nM.
The like results for `Cn1c(Nc2c(Cl)ccc(CNC(=O)C(C)(C)C)c2Cl)nc2cc(C(=O)Nc3nc(C(F)(F)F)cs3)c(F)cc21` [Example 70] were, in that order, 4 nM and 16 nM.
The like results for `Cn1c(Nc2c(Cl)ccc(CNC(=O)C(C)(C)C)c2Cl)nc2cc(C(=O)NCC3CC3)c(OCC(F)F)cc21` [Example 53] were, in that order, 4 nM and 1 nM.
As for `Cn1c(Nc2c(Cl)ccc(CNC(=O)C(C)(C)C)c2Cl)nc2cc(C(=O)NC3CC(F)(F)C3)c(F)cc21` [Example 20], the half-inhibitory concentration (IC50) in assay [1] (setting [3]) turned out to be 3 nM; in assay [2] (setting [4]), 14 nM.
The corresponding values for `Cn1c(Nc2c(Cl)ccc(CNC(=O)OC(C)(C)C)c2Cl)nc2cc(C(=O)Nc3ccc(F)c(Cl)c3)c(OCC(F)F)cc21` [Example 15] are 3 nM and 11 nM.
With `Cn1c(Nc2c(Cl)ccc(CNC(=O)C(C)(C)C)c2Cl)nc2cc(C(=O)NCC(F)F)c(OCC(F)F)cc21` [Example 43], the IC50 in assay [1] (setting [3]) and in assay [2] (setting [4]) was 4 nM in each case.
As for `Cn1c(Nc2c(Cl)ccc(CNC(=O)C(C)(C)C)c2Cl)nc2cc(C(=O)N[C@H]3CC[C@H](C(F)(F)F)CC3)c(F)cc21` [Example 3, N-(trans-4-Trifluoromethyl-cyclohex-1-yl)-2-{2,6-dichloro-3-[(2,2-dimethyl-propionylamino)-methyl]-phenylamino}-6-fluoro-1-methyl-1H-benzimidazole-5-carboxylic acid amide], the IC50 in assay [1] (setting [3]) was found to be 4 nM; in assay [2] (setting [4]), 1 nM.
The like results for `Cn1c(Nc2c(Cl)ccc(CNC(=O)C(C)(C)C)c2Cl)nc2cc(C(=O)Nc3ncc(Cl)s3)c(OCC(F)F)cc21` [Example 41] were, in that order, 4 nM and 1 nM.
The corresponding values for `Cn1c(Nc2c(Cl)ccc(CNC(=O)C(C)(C)C)c2Cl)nc2cc(C(=O)NCC3CCC3)c(OCC(F)F)cc21` [Example 46] are 3 nM and 1 nM.
The like results for `Cn1c(Nc2c(Cl)ccc(CNC(=O)C(C)(C)C)c2Cl)nc2cc(C(=O)NCc3ncccc3C(F)(F)F)c(OCC(F)F)cc21` [Example 42] were, in that order, 4 nM and below 1 nM.
With `Cn1c(Nc2c(Cl)ccc(CNC(=O)C(C)(C)C)c2Cl)nc2cc(C(=O)NCc3ccc(F)cc3C(F)(F)F)c(OCC(F)F)cc21` [Example 36], the half-maximal inhibitory concentration (IC50) in assay [1] (setting [3]) is 4 nM; in assay [2] (setting [4]), below 1 nM.
The corresponding values for `Cn1c(Nc2c(Cl)ccc(CNC(=O)C(C)(C)C)c2Cl)nc2cc(C(=O)Nc3cc(F)cc(Cl)c3)c(OCC(F)F)cc21` [Example 40] are 4 nM and below 1 nM.
The like results for `Cc1ccc(CNC(=O)C(C)(C)C)c(C)c1Nc1nc2cc(C(=O)Nc3ccc(F)c(Cl)c3)c(OCC(F)F)cc2n1C` [Example 71] were, in that order, 2 nM and 16 nM.
